Legend:
Assay type in all cases: functional
[1] = test system: Escherichia coli; test: Minimum inhibitory concentration against Escherichia coli
[2] = test system: Pasteurella multocida; test: Minimum inhibitory concentration against Pasteurella multocida
[3] = test system: Pseudomonas aeruginosa; test: Minimum inhibitory concentration against Pseudomonas aeruginosa
[4] = test system: Staphylococcus aureus; test: Minimum inhibitory concentration against Staphylococcus aureus

Measured: MIC

C[C@H](NC(=O)N[C@@H](Cc1c[nH]c2ccccc12)C(=O)O)C(=O)N[C@H](C(=O)NC[C@H]1C[C@@H](O)[C@H](n2ccc(=O)n(C)c2=O)O1)[C@H](C)N(C)C(=O)[C@@H](C)N
> 512 µg/mL: all assays above

COc1cccn([C@@H]2O[C@@H](CNC(=O)[C@@H](NC(=O)[C@H](C)NC(=O)N[C@@H](Cc3c[nH]c4ccccc34)C(=O)O)[C@H](C)N(C)C(=O)[C@@H](C)N)C[C@H]2O)c1=O
> 512 µg/mL: all assays above

Cc1cn([C@@H]2O[C@@H](CNC(=O)[C@@H](NC(=O)[C@H](C)NC(=O)N[C@@H](Cc3c[nH]c4ccccc34)C(=O)O)[C@H](C)N(C)C(=O)[C@@H](C)N)C[C@H]2O)c(=O)[nH]c1=O
> 512 µg/mL: all assays above

Cc1c(C)n([C@@H]2O[C@@H](CNC(=O)[C@@H](NC(=O)[C@H](C)NC(=O)N[C@@H](Cc3c[nH]c4ccccc34)C(=O)O)[C@H](C)N(C)C(=O)[C@@H](C)N)C[C@H]2O)c(=O)[nH]c1=O
> 512 µg/mL: all assays above

C[C@H](NC(=O)N[C@@H](Cc1c[nH]c2ccccc12)C(=O)O)C(=O)N[C@H](C(=O)NC[C@H]1C[C@@H](O)[C@H](n2cc(Cl)c(=O)[nH]c2=O)O1)[C@H](C)N(C)C(=O)[C@@H](C)N
> 512 µg/mL: all assays above

C[C@H](NC(=O)N[C@@H](Cc1c[nH]c2ccccc12)C(=O)O)C(=O)N[C@H](C(=O)NC[C@H]1C[C@@H](O)[C@H](n2cc(F)c(=O)[nH]c2=O)O1)[C@H](C)N(C)C(=O)[C@@H](C)N
> 512 µg/mL: all assays above

Cc1cc(=O)[nH]c(=O)n1[C@@H]1O[C@@H](CNC(=O)[C@@H](NC(=O)[C@H](C)NC(=O)N[C@@H](Cc2c[nH]c3ccccc23)C(=O)O)[C@H](C)N(C)C(=O)[C@@H](C)N)C[C@H]1O
> 512 µg/mL: all assays above
